Measurements from patent publication US20260226494A1 (HANGZHOU RUIFENG BIOSCIENCE CO., LTD., priority 2023, published 2026).

How the values were obtained:
[1] = tested on: non-transgenic soybean variety Wandou 28; assay: Field herbicide tolerance test, single herbicides (Example 7)
From the text: (§1) A randomized block design was adopted with a total of 24 plots, each measuring 4 m×5 m. […] A 1 m interval was set between adjacent plots, with three replicates for each soybean type. At the V3 growth stage, the following treatments were applied: 1) no herbicide application; 2) respective applications of glyphosate at 1800 g a.i./ha, MCPA at 1848 g a.i./ha, mesotrione at 123.75 g a.i./ha, penoxsulam at 45 g a.i./ha, nicosulfuron at 102 g a.i./ha, pyrazosulfuron-ethyl at 56.25 g a.i./ha, and flazasulfuron at 112.5 g a.i./ha. Seedling emergence rate, plant height (measured from the tallest 10 plants), and herbicide damage symptoms (evaluated from the 10 plants with the mildest symptoms) were investigated at 1, 2, and 4 weeks post-application. Herbicide damage symptom grading was performed according to GB/f 17980.42-2000. The formula for calculating herbicide damage rate was as follows:
(§2) [formula] • (×-herbicide damage rate in percentage; N-number of plants with the same level of herbicide damage; S-herbicide damage level; T-total number of plants evaluated; M-highest level)∘

[2] = tested on: transgenic soybean event XP-2; assay: as above; settings: for tolerance level of transgenic soybean event XP-2 to herbicides (in words): field test, Table 10 doses
From the text: as §1, §2

[3] = tested on: T1 generation of five transformation events (XP-2, XP-195, XP-325, XP-326, XP-552); parameters: species or system Glycine max; settings: in vivo
From the text: At the V4 stage, 225 g a.i./ha of flazasulfuron was sprayed, and the tolerance of each transformant was observed.

[4] = tested on: T1 generation soybean transgenic events; assay: Flazasulfuron tolerance test on progeny of 54 single-copy events; parameters: dose or concentration left out as unconfirmed; settings: […] g a.i./ha
[5] = tested on: T1 generation soybean transgenic events; settings: in vivo
[6] = tested on: T0 transgenic soybean plants; assay: Greenhouse glyphosate spray screen of T0 transgenic events; assay type: in vivo, Glycine max; settings: 1800 g a.i./ha sprayed at V4 stage; 546 T0 events
From the text: After hardening, 685 T0 generation transgenic events obtained from Example 1 were transplanted into natural soil in a greenhouse. Among them, 546 seedlings successfully survived in the greenhouse. When the T0 transgenic soybean plants reached the V4 vegetative stage, 1800 g a.i/ha ofglyphosate was sprayed.

[7] = Wandou 28, 1 week after spraying at V3, doses as Table 10 c1
[8] = Wandou 28, 2 weeks after spraying at V3, doses as Table 10 c1
[9] = Wandou 28, 4 weeks after spraying at V3, doses as Table 10 c1
[10] = XP-2, 2 weeks after spraying at V3, doses as Table 10 c1
[11] = XP-2, 4 weeks after spraying at V3, doses as Table 10 c1

| SMILES | damage rate(%) After 1 week [1, 7] [%] | damage rate(%) After 2 weeks [1, 8] [%] | damage rate(%) After 4 weeks [1, 9] [%] | Height(cm) After 2 weeks [2, 10] [cm] | damage rate(%) After 2 weeks [2, 10] [%] | Height(cm) After 4 weeks [2, 11] [cm] | damage rate(%) After 4 weeks [2, 11] [%] | tolerance level of transgenic soybean event XP-2 to herbicides (in words) [2] | other results |
| --- | --- | --- | --- | --- | --- | --- | --- | --- | --- |
| COc1cc(OC)nc(NC(=O)NS(=O)(=O)c2ncccc2C(=O)N(C)C)n1 [Nicosulfuron, nicosulfuron] | 100 | 100 | 100 | 14.73 ± 0.24 | 0 | 21.66 ± 0.53 | 0 | high tolerance |  |
| CCOC(=O)c1cnn(C)c1S(=O)(=O)NC(=O)Nc1nc(OC)cc(OC)n1 [Pyrazosulfuron-ethyl, pyrazosulfuron-ethyl] | 100 | 100 | 100 | 14.6 ± 0.24 | 0 | 21.63 ± 0.52 | 0 | high tolerance |  |
| Cc1cc(Cl)ccc1OCC(=O)O [MCPA] | 100 | 100 | 100 | 14.7 ± 0.32 | 0 | 21.6 ± 0.52 | 0 | high tolerance |  |
| COc1cc(OC)nc(NC(=O)NS(=O)(=O)c2ncccc2C(F)(F)F)n1 [Flazasulfuron, flazasulfuron] |  |  |  |  |  |  |  |  | tolerance of each transformant (in words) [3]: XP-2 exhibited the highest tolerance; Seedling rate % ([1]; in vivo): 0%; damage rate(%) After 1 week ([1]; in vivo): 100%; damage rate(%) After 2 weeks ([1]; in vivo): 100%; damage rate(%) After 4 weeks ([1]; in vivo): 100%; Height(cm) After 1 week ([2]; in vivo): 12.49 ± 0.35 cm; Height(cm) After 2 weeks ([2]; in vivo): 14.74 ± 0.2 cm; Height(cm) After 4 weeks ([2]; in vivo): 21.69 ± 0.32 cm; Seedling rate % ([2]; in vivo): 100%; damage rate(%) After 1 week ([2]; in vivo): 0%; damage rate(%) After 2 weeks ([2]; in vivo): 0%; damage rate(%) After 4 weeks ([2]; in vivo): 0%; Number of Events: Plant death [4]: 0; Number of Events: No phytotoxicity [5]: 5; Number of Events: having phytotoxicity, New leaves getting yellow [5]: 49 |
| O=C(O)CNCP(=O)(O)O [Glyphosate, glyphosate] | 100 | 100 | 100 | 14.58 ± 0.24 | 0 | 21.6 ± 0.52 | 0 | high tolerance | Number of Events: Growth stunted, dwarfed plants (phytotoxicity) [6]: 327; Number of Events: Plant death [6]: 132; Number of Events: no phytotoxicity [6]: 87 |
| COc1cnc(OC)n2nc(NS(=O)(=O)c3c(OCC(F)F)cccc3C(F)(F)F)nc12 [Penoxsulam, penoxsulam] |  |  |  |  |  |  |  |  | Seedling rate % ([1]; in vivo): 0%; damage rate(%) After 1 week ([1]; in vivo): 100%; damage rate(%) After 2 weeks ([1]; in vivo): 100%; damage rate(%) After 4 weeks ([1]; in vivo): 100%; Height(cm) After 1 week ([2]; in vivo): 12.75 ± 1.01 cm; Height(cm) After 2 weeks ([2]; in vivo): 14.6 ± 0.24 cm; Height(cm) After 4 weeks ([2]; in vivo): 21.61 ± 0.52 cm; Seedling rate % ([2]; in vivo): 100%; damage rate(%) After 1 week ([2]; in vivo): 0%; damage rate(%) After 2 weeks ([2]; in vivo): 0%; damage rate(%) After 4 weeks ([2]; in vivo): 0% |
| CS(=O)(=O)c1ccc(C(=O)C2C(=O)CCCC2=O)c([N+](=O)[O-])c1 [Mesotrione, mesotrione] | 100 | 100 | 100 | 14.59 ± 0.24 | 0 | 21.63 ± 0.52 | 0 | high tolerance |  |
